Values of other authors, collected in patent publication US12290596B2, “Compositions and methods for the treatment of opioid overdose” (priority 2021, dated 2025).

Conditions: intranasal formulation with […] Intravail; cited from earlier work

SMILES: CNS(=O)(=O)Cc1ccc2[nH]cc(CCN(C)C)c2c1 [sumatriptan]
- Increase of maximum plasma concentration in comparison to Imitrex nasal spray: almost four-fold
- Increase of total exposure (AUC): 32%
- Tmax: 8 to 10 min
